Experimental data reported in ChEMBL document CHEMBL1201862, “PubChem BioAssay data set” (2004).
Calls of active or inactive are those of the source.

Tests used:
[1] = cells; format: functional
[2] = Vero E6 cell cytotoxicity, dose response, cytotoxicity control for non-replicating M. tuberculosis project, secondary assay (AID 492998); format: functional, VeroE6; conditions: Vero C1008
[3] = biological target: T1, Rac GTPase-activating protein 1 (Homo sapiens, UniProt Q9H0H5); assay: blockers of MgcRacGAP-driven Rac1 GTP hydrolysis – biochemical, ADP Hunter fluorescence, primary and confirmatory, confirmation (AID 624330); format: functional
T1 sequence (Q9H0H5 whole entry): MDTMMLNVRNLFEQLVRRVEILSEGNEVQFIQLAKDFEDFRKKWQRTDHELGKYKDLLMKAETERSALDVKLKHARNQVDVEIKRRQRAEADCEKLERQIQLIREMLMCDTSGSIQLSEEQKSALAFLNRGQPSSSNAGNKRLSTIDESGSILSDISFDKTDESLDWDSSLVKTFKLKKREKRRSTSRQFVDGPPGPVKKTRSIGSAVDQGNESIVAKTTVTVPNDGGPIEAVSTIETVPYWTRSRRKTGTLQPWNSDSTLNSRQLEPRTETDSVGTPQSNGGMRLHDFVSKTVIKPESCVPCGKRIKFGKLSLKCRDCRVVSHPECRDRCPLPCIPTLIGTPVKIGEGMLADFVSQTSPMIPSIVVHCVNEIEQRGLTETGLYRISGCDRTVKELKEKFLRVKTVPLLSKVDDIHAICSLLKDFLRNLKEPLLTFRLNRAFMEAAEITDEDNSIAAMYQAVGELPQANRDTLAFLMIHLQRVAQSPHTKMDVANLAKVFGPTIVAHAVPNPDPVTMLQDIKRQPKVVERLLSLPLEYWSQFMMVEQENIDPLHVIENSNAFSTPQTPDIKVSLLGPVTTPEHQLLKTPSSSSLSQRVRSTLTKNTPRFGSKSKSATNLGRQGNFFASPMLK

[4] = tested on: H4; assay: Luminescence Cell-Based Dose Response HTS to Identify Activators of 5'UTR Stem-Loop Driven Prion Protein mRNA Translation in H4 Neuroglioblastoma Cells. [Related pubchem assays: 1829 (Project Summary), 1814 (Primary HTS)]; format: functional; conditions: Homo sapiens
[5] = Luminescence Cell-Based Dose Confirmation HTS to Identify Activators of 5'UTR Stem-Loop Driven Alpha-Synuclein mRNA Translation in H4 Neuroglioblastoma Cells. [Related pubchem assays: 1829 (Project Summary), 1814 (Primary HTS)]; format: functional
[6] = biological target: Heat shock protein HSP 90-alpha (Homo sapiens, UniProt P07900); format: functional, organism-based
[7] = viability loss in HeLa cells – cytotoxicity control for MgcRacGAP inhibitor project, dose response (AID 624300); format: functional
[8] = Luminescence Cell-Based Dose Response HTS to Identify Activators of Luciferase Translation or Activity in H4 […] Cells. [Related pubchem assays: 1829 (Project Summary), 1814 (Primary HTS)]; format: functional
[9] = THP-1 cell cytotoxicity, dose response, cytotoxicity control for non-replicating M. tuberculosis project (AID 489025); format: functional
[10] = biological target: FAD-linked sulfhydryl oxidase ALR (Homo sapiens, UniProt P55789); assay: ALR-catalysed DTT oxidation blockers – biochemical, H2O2 detection, luminescence, cherry-pick, dose response (AID 493248)
[11] = blockers of bursicon-stimulated LGR2 cAMP reporter – cell-based, HEK293, CRE-luciferase reporter, cherry pick, set 2, dose response (AID 743343); format: functional;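 note: transfected cells were stimulated with diluted bursicon conditioned medium after compound addition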
[12] = A549 cell cytotoxicity, dose response, cytotoxicity control, plate reader, cherry-pick, antagonist series (AID 743412); format: functional, cell-based
[13] = blockade of melanocortin 4 receptor signaling – cell-based, plate reader, cherry pick, counter-screen for LGR2 antagonist project, dose response (AID 743444); format: functional;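 note: transfected HEK 293 cells stimulated with alpha-MSH peptide; potency of inhibitors of the alpha-MSH evoked signal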
[14] = alpha-synuclein stem-loop luciferase translation blockers – H4 neuroglioma cells, luminescence, confirmation (AID 1988); format: functional, cell-based
[15] = Luminescence Cell-Based Dose Response HTS to Identify Inhibitors of 5'UTR Stem-Loop Driven Prion Protein mRNA Translation in H4 Neuroglioblastoma Cells. [Related pubchem assays: 1827 (Project Summary), 1813 (Primary HTS)]; format: functional
[16] = biological target: Albumin (Bos taurus, UniProt P02769); assay: Counterscreen for inhibitors of T-cell receptor (TCR)-CD3 interaction: Fluorescence-based biochemical high throughput dose response assay to identify inhibitors of T-cell receptor (TCR)-CD3 interaction using a TAMRA-labeled BSA probe.; format: functional
[17] = luciferase reporter signal suppression in cells – H4 neuroglioma cells, luminescence, dose response (AID 1990); format: functional, cell-based
[18] = biological target: Mitogen-activated protein kinase 10 (Homo sapiens, UniProt P53779); assay: Dose response biochemical screening assay for inhibitors of c-Jun N-Terminal Kinase 3 (JNK3). [Related pubchem assays: 746 ]
[19] = biological target: T2, Leucine aminopeptidase (Plasmodium falciparum 3D7, UniProt Q8IL11); assay: P. falciparum M17LAP inhibitors, primary screen, biochemical, fluorogenic H-Leu-NHMec substrate, 1536-well (AID 1619); format: functional
T2 sequence (Q8IL11 whole entry): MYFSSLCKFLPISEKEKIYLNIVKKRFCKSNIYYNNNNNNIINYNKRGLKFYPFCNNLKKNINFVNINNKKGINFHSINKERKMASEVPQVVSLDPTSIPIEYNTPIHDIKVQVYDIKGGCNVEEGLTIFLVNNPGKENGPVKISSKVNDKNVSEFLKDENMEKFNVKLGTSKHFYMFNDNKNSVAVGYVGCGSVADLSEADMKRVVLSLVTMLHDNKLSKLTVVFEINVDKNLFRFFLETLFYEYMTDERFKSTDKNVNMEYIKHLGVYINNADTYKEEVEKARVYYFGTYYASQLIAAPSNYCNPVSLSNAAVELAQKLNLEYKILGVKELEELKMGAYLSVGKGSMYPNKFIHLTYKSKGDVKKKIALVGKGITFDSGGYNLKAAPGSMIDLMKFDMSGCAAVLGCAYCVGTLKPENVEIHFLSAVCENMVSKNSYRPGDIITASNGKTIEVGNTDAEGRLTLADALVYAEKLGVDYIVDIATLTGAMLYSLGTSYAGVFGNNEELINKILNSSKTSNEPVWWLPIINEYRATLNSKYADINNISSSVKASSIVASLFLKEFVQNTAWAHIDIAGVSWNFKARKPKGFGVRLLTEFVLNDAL

[20] = biological target: T3, Caspase-6 (Homo sapiens, UniProt P55212); assay: inhibition of CASP6 peptide cleavage – biochemical, VEID-R110 fluorescence, cherry-pick, dose response (AID 720632)
T3 sequence (P55212 whole entry): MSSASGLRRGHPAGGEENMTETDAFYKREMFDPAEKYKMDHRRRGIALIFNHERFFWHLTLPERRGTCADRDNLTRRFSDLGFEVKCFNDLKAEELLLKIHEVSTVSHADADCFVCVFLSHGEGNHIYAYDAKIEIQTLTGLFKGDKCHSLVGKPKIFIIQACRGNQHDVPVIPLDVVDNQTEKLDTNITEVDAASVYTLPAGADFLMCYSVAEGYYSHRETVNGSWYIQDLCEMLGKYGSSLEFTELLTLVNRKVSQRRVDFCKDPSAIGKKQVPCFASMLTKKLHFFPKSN

[21] = biological target: T4, Histone-lysine N-methyltransferase NSD2 (Homo sapiens, UniProt O96028); format: biochemical
T4 sequence (O96028 whole entry): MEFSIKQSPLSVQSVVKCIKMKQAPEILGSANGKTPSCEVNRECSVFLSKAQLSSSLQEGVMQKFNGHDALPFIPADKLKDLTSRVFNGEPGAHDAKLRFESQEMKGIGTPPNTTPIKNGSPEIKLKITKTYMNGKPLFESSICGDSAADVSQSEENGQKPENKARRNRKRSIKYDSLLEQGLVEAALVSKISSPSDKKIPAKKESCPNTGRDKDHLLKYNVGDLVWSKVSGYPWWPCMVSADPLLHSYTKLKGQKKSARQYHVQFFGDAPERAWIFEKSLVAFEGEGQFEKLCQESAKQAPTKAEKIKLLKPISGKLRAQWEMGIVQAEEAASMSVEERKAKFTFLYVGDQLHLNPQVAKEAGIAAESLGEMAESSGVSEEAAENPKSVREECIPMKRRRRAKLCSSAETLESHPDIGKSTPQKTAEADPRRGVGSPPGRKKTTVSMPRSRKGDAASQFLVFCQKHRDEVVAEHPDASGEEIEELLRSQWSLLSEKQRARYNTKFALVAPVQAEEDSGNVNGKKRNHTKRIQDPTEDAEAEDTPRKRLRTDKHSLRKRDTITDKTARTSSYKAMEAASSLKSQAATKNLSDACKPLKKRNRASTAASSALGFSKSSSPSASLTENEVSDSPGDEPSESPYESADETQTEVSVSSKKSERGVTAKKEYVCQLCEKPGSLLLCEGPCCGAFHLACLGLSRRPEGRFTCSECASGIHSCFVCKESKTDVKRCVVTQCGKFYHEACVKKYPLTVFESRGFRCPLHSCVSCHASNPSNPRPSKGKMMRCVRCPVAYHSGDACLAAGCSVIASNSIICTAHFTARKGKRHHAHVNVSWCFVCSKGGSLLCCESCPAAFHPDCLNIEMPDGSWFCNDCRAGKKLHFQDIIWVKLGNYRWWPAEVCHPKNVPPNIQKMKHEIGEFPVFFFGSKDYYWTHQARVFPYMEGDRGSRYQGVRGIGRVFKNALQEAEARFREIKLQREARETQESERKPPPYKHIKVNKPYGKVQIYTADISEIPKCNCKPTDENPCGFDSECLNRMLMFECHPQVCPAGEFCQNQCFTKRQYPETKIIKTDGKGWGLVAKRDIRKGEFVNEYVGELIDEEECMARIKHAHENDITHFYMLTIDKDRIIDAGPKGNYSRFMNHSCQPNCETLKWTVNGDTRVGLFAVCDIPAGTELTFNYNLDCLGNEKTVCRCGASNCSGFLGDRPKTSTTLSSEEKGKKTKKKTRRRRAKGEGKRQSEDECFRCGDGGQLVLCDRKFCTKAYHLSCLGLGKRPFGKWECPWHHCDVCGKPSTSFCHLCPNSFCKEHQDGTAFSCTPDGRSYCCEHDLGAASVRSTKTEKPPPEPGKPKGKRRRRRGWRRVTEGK

[22] = biological target: T5, Tyrosyl-DNA phosphodiesterase 2 (Homo sapiens, UniProt O95551); assay: potency against TDP2 phosphodiesterase activity – biochemical, epi absorbance, IC50, dose response (AID 743297)
T5 sequence (O95551 whole entry): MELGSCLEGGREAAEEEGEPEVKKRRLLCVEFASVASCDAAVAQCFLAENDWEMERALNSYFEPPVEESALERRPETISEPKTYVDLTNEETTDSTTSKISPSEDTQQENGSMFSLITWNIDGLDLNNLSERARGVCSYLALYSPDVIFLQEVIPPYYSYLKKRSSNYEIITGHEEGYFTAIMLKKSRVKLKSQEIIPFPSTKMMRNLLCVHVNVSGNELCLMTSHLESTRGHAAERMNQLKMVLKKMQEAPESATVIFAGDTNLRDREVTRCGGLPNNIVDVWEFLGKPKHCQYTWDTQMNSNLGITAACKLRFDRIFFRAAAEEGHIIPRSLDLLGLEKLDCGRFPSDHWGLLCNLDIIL

[23] = tested on: Streptococcus; assay: GAS UMAA2166 growth inhibition – luminescence, BacTiterGlo, counter-screen for streptokinase expression inhibitor project, dose response (AID 1915); format: functional, organism-based;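 note: potency for reduction of bacterial viability or growth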
[24] = cells; format: functional, cell-based
[25] = tested on: Streptococcus sp. 'group A'; assay: Streptococcus pyogenes SK(-)GAS viability under kanamycin – luminescence, BacTiterGlo, confirmation, counter-screen for streptokinase expression inhibitor project, dose response (AID 1900); format: functional, organism-based
[26] = cells; format: functional, cell-based; remark: listed apart in the source

Chain of Albumin (P02769 whole entry): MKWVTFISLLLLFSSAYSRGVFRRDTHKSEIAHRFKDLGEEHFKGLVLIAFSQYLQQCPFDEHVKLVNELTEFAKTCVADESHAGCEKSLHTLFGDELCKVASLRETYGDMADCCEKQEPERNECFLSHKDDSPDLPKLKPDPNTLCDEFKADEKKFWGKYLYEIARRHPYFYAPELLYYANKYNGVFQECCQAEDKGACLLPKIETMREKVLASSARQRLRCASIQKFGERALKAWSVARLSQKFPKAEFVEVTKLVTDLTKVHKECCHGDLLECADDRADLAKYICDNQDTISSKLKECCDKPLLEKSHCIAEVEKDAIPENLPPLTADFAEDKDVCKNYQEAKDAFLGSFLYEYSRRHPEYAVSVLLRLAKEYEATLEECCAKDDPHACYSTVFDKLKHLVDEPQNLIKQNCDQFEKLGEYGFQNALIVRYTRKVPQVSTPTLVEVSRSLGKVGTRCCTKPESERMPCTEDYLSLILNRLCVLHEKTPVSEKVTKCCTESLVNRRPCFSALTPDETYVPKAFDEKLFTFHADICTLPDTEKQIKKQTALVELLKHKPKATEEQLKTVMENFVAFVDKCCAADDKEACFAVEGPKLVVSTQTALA
Chain of Mitogen-activated protein kinase 10 (P53779 whole entry): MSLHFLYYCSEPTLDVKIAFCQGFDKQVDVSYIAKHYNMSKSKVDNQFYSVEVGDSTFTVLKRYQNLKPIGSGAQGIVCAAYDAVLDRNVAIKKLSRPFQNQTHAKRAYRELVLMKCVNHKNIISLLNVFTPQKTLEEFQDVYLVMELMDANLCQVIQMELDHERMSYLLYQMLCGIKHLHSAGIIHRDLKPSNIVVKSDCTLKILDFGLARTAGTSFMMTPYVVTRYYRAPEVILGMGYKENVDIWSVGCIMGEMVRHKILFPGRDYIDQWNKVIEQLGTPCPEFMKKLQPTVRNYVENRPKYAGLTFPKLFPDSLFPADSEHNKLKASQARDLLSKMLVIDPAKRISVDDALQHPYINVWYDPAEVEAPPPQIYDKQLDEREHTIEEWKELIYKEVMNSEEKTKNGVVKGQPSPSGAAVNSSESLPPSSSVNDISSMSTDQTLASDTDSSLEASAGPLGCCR
Chain of FAD-linked sulfhydryl oxidase ALR (P55789 whole entry): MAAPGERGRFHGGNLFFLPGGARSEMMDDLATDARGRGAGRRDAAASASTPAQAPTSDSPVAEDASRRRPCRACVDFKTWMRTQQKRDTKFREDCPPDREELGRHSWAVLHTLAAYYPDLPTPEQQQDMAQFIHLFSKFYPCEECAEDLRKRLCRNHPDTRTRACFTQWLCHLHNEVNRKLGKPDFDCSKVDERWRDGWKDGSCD

## COc1ccc(/C(C#N)=C2C=C/C(=N/O)C=C/2)cc1
[1]
  IC50: 44.8 µM (active)
[2]
  CC50: 13.3 µM (active)
[3]
  IC50: 93 µM (active)
[4]
  EC50: 17.6 µM (active)
[5]
  EC50: 16.7 µM (active)
[6]
  AC50: 4.64 µM (active)
[7]
  CC50: 89.3 µM (active)
[8]
  EC50: 14.5 µM (active)
[9]
  CC50: 13 µM (active)
[10]
  AC50: 5.88 µM (active)

## O=C1CC(c2ccc3c(c2)OCO3)Sc2nc3ccccc3n21 (stereo not drawn)
[11]
  AC50: 13.1 µM (active)
[12]
  AC50: > 52 µM (inactive)
[13]
  AC50: 11.2 µM (active)

## CCCCCCn1c(=O)c(C(=O)Nc2ncccc2O)c(O)c2ccccc21
[14]
  EC50: 9.12 µM (active)
[15]
  EC50: 22.7 µM (active)
[16]
  IC50: > 94.2 µM (inactive)
[17]
  EC50: 10.7 µM (active)

## O=S(=O)(c1ccc2c(c1)OCCO2)N1CCC(n2cnc3cc(F)ccc32)CC1
[18]
  IC50: 49.4 µM (not active)

## CCOc1ccc(NC(=O)CN2C(=O)C3CCCN3C2=O)cc1 (stereo not drawn)
[18]
  IC50: > 93.1 µM (not active)
[19]
  IC50: 3.23 µM (active)

## O=C(Cn1cnc([N+](=O)[O-])n1)c1ccc(O)c(O)c1
[20]
  AC50: 43.9 µM (active)

## CC(=O)N1CCn2c3c(c(=O)c4cc(C)ccc42)CCC31 (stereo not drawn)
[21]
  AC50: 7.99 µM (active)
[22]
  IC50: 43.5 µM (inactive)

## Cc1nc2ccccc2c(=O)n1/N=C/c1cc(Br)cc(Br)c1O
[16]
  IC50: > 94.1 µM (inactive)
[23]
  EC50: 8.18 µM (active)
[24]
  EC50: > 350 µM (not active)
[25]
  EC50: 5.09 µM (active)
[26]
  EC50: > 350 µM (not active)
